Laboratory results: US9724391B2, “Combination preparation including a corticosteroid and exosomes” (ORTHOGEN AG, priority 2009, dated 2017)

Columns and labels:
[1] = test system: patient with complete alopecia; settings: systemic and local application, high doses (10-80 mg prednisolone)
[2] = test system: patient with partial rotator cuff rupture and complete shoulder stiffness le; settings: before combination therapy
Procedure: Surgery appointment for the left shoulder was made. Here it should be tried to avoid surgery. […] 2 ml Orthokine were administered into the shoulder with 10 mg Anakinra and 10 mg triamcinolone via a syringe. […] The therapy was continued until day 4.

[3] = test system: patient with psoriasic arthritis; settings: cortisone 20-40 mg intraarticular, effect for some days; combination after a few days
[4] = test system: patient with severe neurodermitis; assay: Case IX: severe neurodermitis, intramuscular application; assay type: in vivo, human; settings: systemic intramuscular application, doses of 80 mg
Procedure: FIG. 1A to FIG. 1C show pictures of the feet of a neurodermitis patient whose case is described below as case IX (Example 4).
Case IX: • Severe dermatologically verified neurodermitis with strong changes, especially in the area of hands and feet. […] After that, attempt of intramuscular application of 2 ml of exosomes in connection with 20 mg triamcinolone. […] Subsequent slight deterioration but still improvement compared to preliminary findings. FIG. 1A describes the dermatological changes at both feet immediately before treatment, FIG. 1B and FIG. 1C one week after treatment for the right/left foot.

[5] = test system: patient with severe therapy-resistant rheumatoid arthritis; settings: after one week; triamcinolone alone 10 mg to 40 mg intraarticular, combination with total 20 mg triamcinolone
Procedure: Injection of exosomes (after incubation with IL-1Ra) and admixing total amount of 20 mg triamcinolone in MCP2-5 ab. and both shoulders.

[6] = test system: patient with severe Bechterew arthritis; assay: Case X: severe Bechterew arthritis, injection into the affected joints; assay type: in vivo, human; settings: total dose 40 mg into all affected joints; for 1 week
Procedure: Case X • Severe Bechterew arthritis with iridocyclitis left eye. Patient is given prednisolone and MTX in changing doses as basic therapy. CRP 20_3 mg/l; left CFJ clearly swollen with +2 cm compared to the other side; left MCP and first knuckle 1st finger left clearly swollen and painful, right shoulder swollen, painful, abduction reduced by 30 degrees compared to normal. […] CRP within 1 week reduced from 20.3 mg/l to 2.9 mg/l.

[7] = test system: patient with gonarthrosis ri, cartilage defects degree 2-4 according to Outerbridge; assay: Case VIII: gonarthrosis ri, intraarticular injection into the right knee; assay type: in vivo, human; settings: triamcinolone 10-40 mg intraarticular (history); exosomes one-time intraarticular, after 4 weeks
Procedure: Case VIII: • Gonarthrosis ri with cartilage defects verified arthroscopically degree 2-4 according to Outerbridge. The patient wishes to delay surgery and joint replacement. History of intraarticular injection of triamcinolone in doses of 10-40 mg to no effect. Injection of 1 ml of exosomes prepared by means of the technique as described after incubation with IL-1Ra. […] Afterwards decision for an intraarticular injection into the right knee combined with 10 mg triamcinolone.

osteoarthritis = settings: in vivo; cited from earlier work

Compound: C[C@]12CCC(=O)C=C1CC[C@@H]1[C@@H]2C(=O)C[C@@]2(C)[C@H]1CC[C@]2(O)C(=O)CO [cortisone]
- effect of earlier therapy attempts on alopecia [1]: without effect
- outcome of numerous earlier injections into the left shoulder [2]: without success
- pain reduction [3]: 10-30%

Compound: C[C@]12C=CC(=O)C=C1CC[C@@H]1[C@@H]2[C@@H](O)C[C@@]2(C)[C@H]1CC[C@]2(O)C(=O)CO [prednisolone]
- duration of short-term effect [4]: 1 week

Compound: C[C@]12C=CC(=O)C=C1CC[C@H]1[C@@H]3C[C@@H](O)[C@](O)(C(=O)CO)[C@@]3(C)C[C@H](O)[C@@]12F [triamcinolone]
- pain improvement / pain reduction [5]: 20%
- improvement [6]: 20%
- clinical effect regarding pain and function of single agents [7]: to no effect
- duration of short-term effect [4]: 1 week

Compound: Anakinra: recombinant human IL-1 receptor antagonist, amino acids 26-177, terminally L-methionylated, 153 amino acids
- effects in the treatment of osteoarthritis compared to a placebo treatment (osteoarthritis): did not show any effects
